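Protocol summary: plate cells (96-well), add compound at 5 concentrations, incubate 48 h, interpolate endpoints linearly. TGI: concentration producing complete growth inhibition.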
Columns and labels:
Assay in all cases: growth of human tumour cells (NCI), 48 h
MDA-N = system: MDA-N
SR leukemia = system: SR leukemia
DU-145 prostate = system: DU-145 prostate
HS 578T breast = system: HS 578T breast
MDA-MB-231 breast = system: MDA-MB-231 breast
T-47D breast = system: T-47D breast
M14 melanoma = system: M14 melanoma
DMS 114 small cell lung = system: DMS 114 small cell lung
DLD-1 colon = system: DLD-1 colon

| SMILES | TGI (MDA-N) | TGI (SR leukemia) | TGI (DU-145 prostate) | TGI (HS 578T breast) | TGI (MDA-MB-231 breast) | TGI (M14 melanoma) | TGI (DMS 114 small cell lung) | TGI (DLD-1 colon) | also measured |
| --- | --- | --- | --- | --- | --- | --- | --- | --- | --- |
| O=C1OC[C@@H]2[C@@H](O)CCCCCN12 | > 100 µM | > 100 µM | > 100 µM | > 100 µM | > 100 µM |  |  |  | TGI (T-47D breast): > 100 µM |
| CCOc1ccc2nc(-c3ccc(O)cc3)sc2c1 | > 100 µM |  | > 100 µM |  | > 100 µM | > 100 µM |  |  |  |
| N/C(=N\N=C/c1ccccc1O)NO |  |  |  |  |  |  | 30.7 µM | > 45.6 µM |  |
| O=C1OC(c2ccccc2)=N/C1=C\c1cccnc1 |  | > 100 µM |  | > 100 µM |  | > 100 µM |  |  |  |
| Nc1ncnc2c1ncn2C1OC(COP(=O)(O)O)C(O)C1O (stereo not drawn) |  |  |  |  |  |  | > 50 µM | > 31.6 µM |  |
| CC1(C)CC23C4COC(=O)C2CCC1C3CC4=O (stereo not drawn) |  |  |  |  |  |  |  | 42.6 µM |  |

— PubChem BioAssay (NCI)
